Assay: xn = mol fraction of the nth substance listed
Settings: Liquid

CC(=O)N1CCOCC1 [4-acetylmorpholine] + O
101 kPa
Settings | mass density [kg/m3] | viscosity [mPa·s]
298.15 K, x1 = 0.05 | 1034.97 | 1.79
298.15 K, x1 = 0.07 | 1046.13 | 2.22
298.15 K, x1 = 0.1 | 1060.06 | 3.22
298.15 K, x1 = 0.2 | 1087.71 | 5.96
298.15 K, x1 = 0.3 | 1100.16 | 8.7
298.15 K, x1 = 0.4 | 1106 | 10.1
298.15 K, x1 = 0.5 | 1108.55 | 10.4
298.15 K, x1 = 0.6 | 1109.77 | 10.5
298.15 K, x1 = 0.7 | 1110.29 | 9.61
298.15 K, x1 = 0.8 | 1110.46 | 9.18
298.15 K, x1 = 0.9 | 1110.4 | 8.79
298.15 K, x1 = 1 | 1110.33 | 8.48
303.15 K, x1 = 0.05 | 1032.47 | 1.56
303.15 K, x1 = 0.07 | 1043.32 | 1.96
303.15 K, x1 = 0.1 | 1056.85 | 2.75
303.15 K, x1 = 0.2 | 1083.85 | 4.94
303.15 K, x1 = 0.3 | 1095.95 | 7.01
303.15 K, x1 = 0.4 | 1101.68 | 8.02
303.15 K, x1 = 0.5 | 1104.19 | 8.29
303.15 K, x1 = 0.6 | 1105.39 | 8.48
303.15 K, x1 = 0.7 | 1105.93 | 7.89
303.15 K, x1 = 0.8 | 1106.12 | 7.56
303.15 K, x1 = 0.9 | 1106.08 | 7.3
303.15 K, x1 = 1 | 1106 | 7.1
313.15 K, x1 = 0.05 | 1027.12 | 1.23
313.15 K, x1 = 0.07 | 1037.36 | 1.52
313.15 K, x1 = 0.1 | 1050.17 | 2.1
313.15 K, x1 = 0.2 | 1075.73 | 3.55
313.15 K, x1 = 0.3 | 1087.43 | 4.8
313.15 K, x1 = 0.4 | 1092.98 | 5.47
313.15 K, x1 = 0.5 | 1095.41 | 5.68
313.15 K, x1 = 0.6 | 1096.65 | 5.77
313.15 K, x1 = 0.7 | 1097.23 | 5.56
313.15 K, x1 = 0.8 | 1097.4 | 5.42
313.15 K, x1 = 0.9 | 1097.41 | 5.28
313.15 K, x1 = 1 | 1097.35 | 5.18
323.15 K, x1 = 0.05 | 1021.29 | 0.998
323.15 K, x1 = 0.07 | 1031.03 | 1.21
323.15 K, x1 = 0.1 | 1043.19 | 1.65
323.15 K, x1 = 0.2 | 1067.57 | 2.68
323.15 K, x1 = 0.3 | 1078.79 | 3.51
323.15 K, x1 = 0.4 | 1084.2 | 3.96
323.15 K, x1 = 0.5 | 1086.6 | 4.13
323.15 K, x1 = 0.6 | 1087.84 | 4.4
323.15 K, x1 = 0.7 | 1088.43 | 4.13
323.15 K, x1 = 0.8 | 1088.71 | 4.06
323.15 K, x1 = 0.9 | 1088.78 | 4
323.15 K, x1 = 1 | 1088.74 | 3.96
333.15 K, x1 = 0.05 | 1015.01 | 0.857
333.15 K, x1 = 0.07 | 1024.27 | 1.04
333.15 K, x1 = 0.1 | 1035.89 | 1.24
333.15 K, x1 = 0.2 | 1059.2 | 2.05
333.15 K, x1 = 0.3 | 1069.99 | 2.66
333.15 K, x1 = 0.4 | 1075.32 | 3
333.15 K, x1 = 0.5 | 1077.66 | 3.13
333.15 K, x1 = 0.6 | 1078.93 | 3.41
333.15 K, x1 = 0.7 | 1079.63 | 3.18
333.15 K, x1 = 0.8 | 1079.97 | 3.17
333.15 K, x1 = 0.9 | 1080.1 | 3.14
333.15 K, x1 = 1 | 1080.14 | 3.12
343.15 K, x1 = 0.05 | 1008.29 | 0.743
343.15 K, x1 = 0.07 | 1017.17 | 0.861
343.15 K, x1 = 0.1 | 1028.29 | 1.03
343.15 K, x1 = 0.2 | 1050.63 | 1.66
343.15 K, x1 = 0.3 | 1061.11 | 2.09
343.15 K, x1 = 0.4 | 1066.32 | 2.34
343.15 K, x1 = 0.5 | 1068.66 | 2.46
343.15 K, x1 = 0.6 | 1070 | 2.59
343.15 K, x1 = 0.7 | 1070.82 | 2.54
343.15 K, x1 = 0.8 | 1071.21 | 2.53
343.15 K, x1 = 0.9 | 1071.43 | 2.54
343.15 K, x1 = 1 | 1071.55 | 2.55

COCCOCCOCCOC [2,5,8,11-tetraoxadodecane] + O
Settings | mass density, 101.3 kPa [kg/m3] | viscosity, 101 kPa [mPa·s]
303.15 K, x1 = 0.0198 | 1004.97 | 1.38
303.15 K, x1 = 0.05 | 1015.35 | 2.38
303.15 K, x1 = 0.07 | 1019.1 | 2.99
303.15 K, x1 = 0.1 | 1020.68 | 3.6
303.15 K, x1 = 0.2 | 1012.62 | 3.76
303.15 K, x1 = 0.3 | 1002.98 | 3.13
303.15 K, x1 = 0.4 | 995.48 | 2.67
303.15 K, x1 = 0.5 | 990.09 | 2.38
303.15 K, x1 = 0.6 | 985.94 | 2.14
303.15 K, x1 = 0.7 | 982.66 | 1.99
303.15 K, x1 = 0.8 | 979.8 | 1.9
303.15 K, x1 = 0.9 | 977.61 | 1.82
303.15 K, x1 = 1 | 975.86 | 1.77
313.15 K, x1 = 0.0198 | 1000.31 | 1.09
313.15 K, x1 = 0.05 | 1008.77 | 1.79
313.15 K, x1 = 0.07 | 1011.54 | 2.19
313.15 K, x1 = 0.1 | 1012.19 | 2.6
313.15 K, x1 = 0.2 | 1003.21 | 2.8
313.15 K, x1 = 0.3 | 993.51 | 2.39
313.15 K, x1 = 0.4 | 985.98 | 2.09
313.15 K, x1 = 0.5 | 980.57 | 1.94
313.15 K, x1 = 0.6 | 976.37 | 1.73
313.15 K, x1 = 0.7 | 973.09 | 1.65
313.15 K, x1 = 0.8 | 970.25 | 1.58
313.15 K, x1 = 0.9 | 968.06 | 1.51
313.15 K, x1 = 1 | 966.36 | 1.48
323.15 K, x1 = 0.0198 | 995.02 | 0.876
323.15 K, x1 = 0.05 | 1001.79 | 1.39
323.15 K, x1 = 0.07 | 1003.67 | 1.67
323.15 K, x1 = 0.1 | 1003.47 | 1.96
323.15 K, x1 = 0.2 | 993.71 | 2.1
323.15 K, x1 = 0.3 | 983.93 | 1.88
323.15 K, x1 = 0.4 | 976.37 | 1.69
323.15 K, x1 = 0.5 | 970.93 | 1.6
323.15 K, x1 = 0.6 | 966.77 | 1.44
323.15 K, x1 = 0.7 | 963.5 | 1.37
323.15 K, x1 = 0.8 | 960.68 | 1.32
323.15 K, x1 = 0.9 | 958.5 | 1.27
323.15 K, x1 = 1 | 956.85 | 1.26
333.15 K, x1 = 0.0198 | 989.18 | 0.728
333.15 K, x1 = 0.05 | 994.39 | –
333.15 K, x1 = 0.07 | 995.46 | 1.33
333.15 K, x1 = 0.1 | 994.52 | 1.53
333.15 K, x1 = 0.2 | 984.05 | 1.66
333.15 K, x1 = 0.3 | 974.23 | 1.52
333.15 K, x1 = 0.4 | 966.69 | 1.4
333.15 K, x1 = 0.5 | 961.2 | 1.3
333.15 K, x1 = 0.6 | 957.06 | 1.21
333.15 K, x1 = 0.7 | 953.78 | 1.16
333.15 K, x1 = 0.8 | 950.98 | 1.13
333.15 K, x1 = 0.9 | 948.9 | 1.1
333.15 K, x1 = 1 | 947.32 | 1.08
343.15 K, x1 = 0.0198 | 982.78 | 0.617
343.15 K, x1 = 0.05 | 986.6 | 0.922
343.15 K, x1 = 0.07 | 986.96 | 1.08
343.15 K, x1 = 0.1 | 985.33 | 1.24
343.15 K, x1 = 0.2 | 974.27 | 1.34
343.15 K, x1 = 0.3 | 964.41 | 1.26
343.15 K, x1 = 0.4 | 956.86 | 1.17
343.15 K, x1 = 0.5 | 951.36 | 1.1
343.15 K, x1 = 0.6 | 947.25 | 1.04
343.15 K, x1 = 0.7 | 943.99 | 0.998
343.15 K, x1 = 0.8 | 941.33 | 0.976
343.15 K, x1 = 0.9 | 939.3 | 0.952
343.15 K, x1 = 1 | 937.72 | 0.945
